# Earlier results, collected in patent US10363268B2, “Proton-binding polymers for oral administration” (Tricida, Inc., priority 2013, dated 2019).
# Tested on: adult patients with CKD
smiles,measurement,setting,value
"O=C([O-])O.[Na+] [sodium bicarbonate, Sodium bicarbonate]",patients experiencing rapid progression (rapid decline of CrCl >3 ml/min per 1.73 m^2/yr),"CKD patients, 2 years",9%
same,patients who developed ESRD,"CKD patients, 2 years, ESRD = CrCl<10 ml/min",6.5%
same,decline in CrCl,"CKD patients, oral sodium bicarbonate for 2 years, average dose 1.82 g/day",1.88 ml/min per 1.73 m^2
same,relative risk of ESRD,versus control group,0.13
same,relative risk of rapid progression,versus control group,0.15
